The structures appear in SMILES notation.

T1 sequence (Q99705 whole entry E4Q/A5T): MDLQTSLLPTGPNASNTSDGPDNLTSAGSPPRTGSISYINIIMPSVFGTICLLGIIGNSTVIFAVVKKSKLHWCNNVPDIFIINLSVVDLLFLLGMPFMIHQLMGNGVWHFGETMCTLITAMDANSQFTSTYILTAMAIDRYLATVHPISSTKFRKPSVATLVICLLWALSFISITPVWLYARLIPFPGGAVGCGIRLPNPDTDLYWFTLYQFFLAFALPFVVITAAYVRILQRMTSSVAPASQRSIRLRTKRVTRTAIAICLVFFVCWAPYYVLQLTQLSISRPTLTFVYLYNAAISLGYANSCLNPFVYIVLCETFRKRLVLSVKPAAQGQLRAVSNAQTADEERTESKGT

The test has as its target T1, mutated (E4Q, A5T) hMCHR1 receptor (Homo sapiens, UniProt Q99705, A5T/E4Q).
T1 construct: expressed in transfected cells
Nature of the test: Radioligand binding assay for assessment of MCHR1 activity. Conditions: membranes from stably transfected HEK-293 cells; competition with [Phe13,[125I]Tyr19]-MCH, 90 min. How it is done:
Radioligand Binding Assay for Assessment of MCHR1 Activity
Membranes from stably transfected HEK-293 cells expressing a mutated (E4Q, A5T) hMCHR1 receptor were prepared by dounce homogenization and differential centrifugation. Binding experiments were carried out with 0.5-1.0 ug of membrane protein incubated in a total of 0.2 ml in 25 mM HEPES (pH 7.4) with 10 mM MgCl2, 2 mM EGTA, and 0.1% BSA (Binding Buffer) for 90 min. For competition binding assays, reactions were carried out in the presence of with 0.06-0.1 nM [Phe^13, [^125I]Tyr^19]-MCH and increasing concentrations of unlabeled test molecules. Reactions were terminated by rapid vacuum filtration over 96 well-GFC UNIFILTER® plates pre-coated with 0.075 ml binding buffer containing 1% BSA, and washed 3 times with 0.4 ml of Phospho-buffered Saline (pH 7.4) containing 0.01% TX-100. Filters were dried, 0.05 ml microscint 20 was added to each well and radioactivity was subsequently quantified by scintillation counting on a TOPCOUNT® microplate scintillation counter (Packard). Inhibitory constants were determined by nonlinear least squares analysis using a four parameter logistic equation.
`COc1cc(-n2nnc3cc(-c4ccc(Cl)cc4)sc3c2=O)ccc1OCC(O)C(F)(F)F` (stereo not drawn) [Example 8, 6-(4-Chlorophenyl)-3-(3-methoxy-4-(3,3,3-trifluoro-2-hydroxypropoxy)phenyl)thieno[3,2-d][1,2,3]triazin-4(3H)-one] showed a Ki of 8 nM.

As for `COc1cc(-n2nnc3cc(-c4ccc(Cl)cc4)sc3c2=O)ccc1OCC(C)(C)O` [Example 1, 6-(4-Chlorophenyl)-3-(4-(2-hydroxy-2-methylpropoxy)-3-methoxyphenyl)-thieno[3,2-d][1,2,3]triazin-4(3H)-one], the Ki is 3 nM.

For the compound `COc1cc(-n2nnc3cc(-c4ccc(Cl)cc4)sc3c2=O)ccc1OCC(C)=O` [Example 2, 6-(4-Chlorophenyl)-3-(3-methoxy-4-(2-oxopropoxy)phenyl)thieno[3,2-d][1,2,3]triazin-4(3H)-one], affinity was put at a Ki of 5 nM.

On to `COc1cc(-n2nnc3cc(-c4ccc(Cl)cc4)sc3c2=O)ccc1OCC(C)O` (stereo not drawn) [Example 3, 6-(4-Chlorophenyl)-3-(4-(2-hydroxypropoxy)-3-methoxyphenyl)thieno[3,2-d][1,2,3]triazin-4(3H)-one], for which the inhibition constant Ki came out at 7 nM.

`COc1cc(-n2ncc3cc(-c4ccc(Cl)cc4)sc3c2=O)ccc1OCC(C)(C)O` [Example 9, 2-(4-Chlorophenyl)-6-(4-(2-hydroxy-2-methylpropoxy)-3-methoxyphenyl)-thieno[2,3-d]pyridazin-7(6H)-one] gave a Ki of 4 nM.

Compound `COc1cc(-n2nnc3cc(-c4ccc(Cl)cc4)sc3c2=O)ccc1OCCO` [Example 4, 6-(4-Chlorophenyl)-3-(4-(2-hydroxyethoxy)-3-methoxyphenyl)thieno[3,2-d][1,2,3]triazin-4(3H)-one] came in with a Ki of 5 nM.

`COc1cc(-n2nnc3cc(-c4ccc(Cl)cc4)sc3c2=O)ccc1OC[C@H]1OC(C)(C)O[C@@H]1C` [Example 6]: affinity was put at a Ki of 19 nM.

In the case of `COc1cc(-n2nnc3cc(-c4ccc(Cl)cc4)sc3c2=O)ccc1OC[C@@H](O)[C@@H](C)O` [Example 7, 6-(4-Chlorophenyl)-3-(4-((2R,3R)-2,3-dihydroxybutoxy)-3-methoxyphenyl)thieno[3,2-d][1,2,3]triazin-4(3H)-one], the Ki amounted to 5 nM.

On to `COc1cc(-n2nnc3cc(-c4ccc(Cl)cc4)sc3c2=O)ccc1OCC(O)C1CC1` (stereo not drawn) [Example 5, 6-(4-Chlorophenyl)-3-(4-(2-cyclopropyl-2-hydroxyethoxy)-3-methoxyphenyl)thieno[3,2-d][1,2,3]triazin-4(3H)-one], for which affinity was put at a Ki of 10 nM.

In general, Ki refers to the equilibrium dissociation constant of an inhibitor or competing ligand from its target. Read a low Ki as tighter binding.

For the origin of these results see patent US7973159B2, “Non-basic melanin concentrating hormone receptor-1 antagonists” (Bristol-Myers Squibb Company, priority 2007, dated 2011).
